Experimental data taken from a compilation of properties of binary mixtures (doi:10.1021/je300932n).

Assay: xn = mol fraction of the nth substance listed
Settings: 101 kPa

CCCC[n+]1ccn(C)c1.N[C@@H](CC(=O)O)C(=O)[O-] + CO
electrical conductivity (298.15 K, x1 = 0.0099): 0.82 S/m
electrical conductivity (298.15 K, x2 = 0.1001): 0.087 S/m
electrical conductivity (298.15 K, x2 = 0.1999): 0.093 S/m
electrical conductivity (298.15 K, x2 = 0.398): 0.125 S/m
electrical conductivity (298.15 K, x2 = 0.5949): 0.218 S/m
electrical conductivity (298.15 K, x2 = 0.6969): 0.314 S/m
electrical conductivity (298.15 K, x2 = 0.9214): 1.27 S/m
electrical conductivity (298.15 K, x2 = 0.9501): 1.36 S/m
electrical conductivity (298.15 K, x2 = 0.975): 1.23 S/m
electrical conductivity (303.15 K, x1 = 0.0099): 0.89 S/m
electrical conductivity (303.15 K, x2 = 0.1001): 0.101 S/m
electrical conductivity (303.15 K, x2 = 0.2999): 0.148 S/m
electrical conductivity (303.15 K, x2 = 0.398): 0.185 S/m
electrical conductivity (303.15 K, x2 = 0.5015): 0.231 S/m
electrical conductivity (303.15 K, x2 = 0.7957): 0.75 S/m
electrical conductivity (303.15 K, x2 = 0.8988): 1.22 S/m
electrical conductivity (303.15 K, x2 = 0.9214): 1.32 S/m
electrical conductivity (303.15 K, x2 = 0.9501): 1.39 S/m
electrical conductivity (303.15 K, x2 = 0.975): 1.25 S/m
electrical conductivity (308.15 K, x1 = 0.0099): 1 S/m
electrical conductivity (308.15 K, x2 = 0.1001): 0.124 S/m
electrical conductivity (308.15 K, x2 = 0.1999): 0.155 S/m
electrical conductivity (308.15 K, x2 = 0.2999): 0.202 S/m
electrical conductivity (308.15 K, x2 = 0.5015): 0.263 S/m
electrical conductivity (308.15 K, x2 = 0.5949): 0.336 S/m
electrical conductivity (308.15 K, x2 = 0.7957): 0.83 S/m
electrical conductivity (308.15 K, x2 = 0.8988): 1.28 S/m
electrical conductivity (308.15 K, x2 = 0.9501): 1.44 S/m
electrical conductivity (318.15 K, x1 = 0.0099): 1.03 S/m
electrical conductivity (318.15 K, x2 = 0.1001): 0.205 S/m
electrical conductivity (318.15 K, x2 = 0.2999): 0.233 S/m
electrical conductivity (318.15 K, x2 = 0.398): 0.26 S/m
electrical conductivity (318.15 K, x2 = 0.5949): 0.429 S/m
electrical conductivity (318.15 K, x2 = 0.6969): 0.64 S/m
electrical conductivity (318.15 K, x2 = 0.9214): 1.48 S/m
electrical conductivity (318.15 K, x2 = 0.9501): 1.57 S/m
electrical conductivity (318.15 K, x2 = 0.975): 1.39 S/m
